Measured values published in paper PMC4683533, “Discovery of novel INK4C small-molecule inhibitors to promote human and murine hematopoietic stem cell ex vivo expansion” (Scientific Reports, 2015).
“Also recorded” adds a separate entry of the source.

Experiments:
[1] = tested on: LT-repopulating HSCs (CD34-LKS cells); experiment: competitive bone marrow transplantation (cBMT) assay; assay type: in vivo, mouse
Procedure: Figure 3 Treatment of c-Kit-enriched murine BM cells with p18SMI compounds enhances HSC expansion. (A) The average number of total cells, HSPCs (Lin^−Sca1^+) and long term (LT)-HSCs (Lin^-Sca1^+CD48^−CD150^+) were analyzed by flow cytometry. (B) Single CD34^−LKS cell were deposited into each well of a 96-well plate, along with differentiation medium plus different concentrations of p18SMI compounds to show the dose-response effect of p18SMI compounds. (C) CAFC-LDA assay of cells treated with XIE18-6, compound 40 and DMSO to reveal the frequency of primitive HSCs. Above data (A–C) is mean ± SEM for all experiments of two or more and were performed in duplicate or triplicate. (D) Experimental design for transplantation (n = 10). CD34^-LKS cells were sorted into 96-well plates at 50 cells/well and cultured for 3 days with cytokine plus 20 μM of compounds or DMSO. Cells from each well were mixed with 2 × 10^6 freshly isolated bone marrow MNCs and co-transplanted by tail-vein injection into lethally irradiated CD45.2 recipient mice. 16 weeks after transplantation, bone marrow MNCs were stained to determine the engraftment level of donor cells. Bone marrow MNCs were also stained for lineage analysis. Multi-lineage differentiation was examined by flow cytometry. GM, T and B indicate lineages for myeloid, T and B cells, respectively. (E,F) The engraftment levels at 16 weeks after primary transplantation, and multi-lineage differentiation profile. Data is mean ± SEM for all experiments (***p < 0.001, **p < 0.01). TEXT PRINTED IN THE PICTURE: (E) #40: Engrafment%: *** 5.93X | (E) XIE18-6: Engrafment%: ** 3.01X DOUBTS OF THE COPYIST ABOUT THIS PICTURE: Panel E: 5.93X and 3.01X are printed on brackets running from #40 and from XIE18-6 to DMSO. No measure is printed beside them, so the axis label 'Engrafment%' was used as the measure.
The increased frequency and total number of functional LT-HSCs after treatment with p18SMI compounds was further confirmed by competitive bone marrow transplantation (cBMT) assay (Fig. 3D). CD34^-LKS cells were first sorted and cultured w/o p18SMI compound for 3 days. Then the cultured cells were gathered and co-transplanted into lethally irradiated mice with competitor cells. […] Moreover, the engraftment of the group treated with compound 40 was double of that of the group treated with XIE18–6.

[2] = tested on: c-Kit-enriched BM cells (progenitor cells, HSPCs, LT-HSCs); experiment: CFSE cell division assay; assay type: cell-based, mouse; conditions: LT-HSC
Description: We have previously shown that deficiency of p18 may enhance HSCs expansion by inducing primitive phenotypes after each cell division in vivo[19]. To obtain direct evidence that compound 40 promotes primitive phenotypes after each cell division, we measured cell divisions in distinct immunophenotypically-defined populations of cells treated with p18SMI compound. 5- (and 6-) carboxy-fluorescein diacetatesuccinimidylester (CFSE) dye was used to label the c-Kit-enriched BM cells before culture. Surface markers for progenitor cells, HSPCs and LT-HSCs were used to co-stain the BM cells that were harvested 5 days after treatment with the p18SMI compound. The number of initial cell divisions was measured based on the intensity of CFSE in each cell population. Consistent with previous phenotype results, little effect on the progenitor cells and HSPCs populations was observed (Fig. 5A).
Prior to culture, cKit-enriched BM cells (1 × 10^6/mL) were labeled with 5- (and 6-) carboxy-fluorescein diacetatesuccinimidylester (CFSE) dye (3 μM, Molecular Probes) in PBS supplemented with 0.1% bovine serum albumin. Labeling was performed in the dark at 37 °C for 10 min. […] During cell division, CFSE is distributed equally between daughter cells so that the generation of cells could be reflected by the content of CFSE and measured by the intensity of fluorescence. […]

32D cells = experiment: MTT cell proliferation assay, general cytotoxicity; assay type: cell-based
Procedure: First, a cell-proliferation assay was performed on the immortalized myeloblast-like cell line 32D cells to evaluate general cytotoxicity. […] We also evaluated cytotoxicity using primary hematopoietic cells.
(§1) To evaluate the toxicity of our top compounds, we performed a cell proliferation assay using 32D cells as well as leukemia cell lines and myeloma cell lines. Weihi-3 cells were cultured at 37 °C under 5% CO2 in RPMI 1640 medium supplemented with 10%FBS. After 48 h, the supernatant was collected and filtered. 32D cells were cultured in RPMI 1640 with 10% FBS and 10% supernatant collected from Weihi-3 cells. 8,000 32D cells or leukemia cell line (KG-1 or KG-1a) or myeloma cell line (MM.1S or RPMI 8226) were plated in a 96-well plate in 198 μL culture media per well, and then cultured (37 °C, 5% CO2) overnight. 2 μL of serially diluted compounds dissolved in saline or DMSO were added to each well and incubated (37 °C, 5% CO2) for 72 h. The concentration of DMSO was equal to the one in corresponding compound group. 20 μL of MTT solution was added to each well and then incubated (37 °C, 5% CO2) for 4 h. The percentage of cell survival was determined using the MTT assay, as previously described. The data was analyzed using GraphPad Prism v6.0.

MM.1S = experiment: MTT proliferation assay on myeloma cell line; assay type: cell-based
Description: (§2) With confirmation of compound 40 promoting the expansion of HSCs, we further examined whether it might also increase the risk of malignant diseases. In order to determine the effect of compound 40 on hematological tumorigenesis, proliferation of both leukemia cell lines (KG-1 and KG-1a) and myeloma cell lines (MM.1S and RPMI 8226) was further investigated by a standard MTT assay.
as §1
(§3) (1 picture or pasted object on this page, not shown here)

RPMI 8226 = experiment: MTT proliferation assay on myeloma cell line; assay type: cell-based
Description: as §2, §1, §3

O=C([O-])c1ccc(S(=O)(=O)NC2CCCCC2)cc1.[Na+] [Compound 40, sodium 4-(N-cyclohexylsulfamoyl)benzoate]
engraftment relative to the group treated with XIE18–6 ([1]; 16 weeks after transplantation): double
multi-lineage differentiation profile (GM, T, B) compared with the control group ([1]; 16 weeks after transplantation): did not cause predominant growth of any specific lineages
increase in engraftment compared with the DMSO control group ([1]; CD34-LKS cells cultured 3 days with 20 μM compound, co-transplanted with competitor cells into lethally irradiated mice, bone marrow 16 weeks after transplantation): 5.93 fold
increase in engraftment compared with the uncultured group ([1]; cells cultured 3 days with 20 μM compound, 16 weeks after transplantation): 4.34 fold
% Divided [2]: 65.2%
cytotoxicity toward 32D cells (32D cells): did not show significant cytotoxicity; also recorded: not cytotoxic
cytotoxic effects (cell viability, MTT) (32D cells; 25 μM): did not show any cytotoxic effects
cell viability (MTT) (32D cells; 50 μM, thought to be due to cytotoxicity of the solvent DMSO): only slight decreases in cell viability
enhancement of proliferation (MTT) (MM.1S; 5 μM): did not enhance
effect on myeloma cell line (MM.1S; high concentration (20 μM)): no effect
enhancement of proliferation (MTT) (RPMI 8226; 5 μM): did not enhance
effect on myeloma cell line (RPMI 8226; high concentration (20 μM)): no effect
